{"source": "patent US20250066739A1", "about": "“Compositions and Methods for Improving Squamous Epithelial Organoids and Their Production” (The Trustees of Columbia University in the City of New York, priority 2022, published 2025)", "key": {"[1]": {"tested_on": "EPC1 and EPC2 hTERT-immortalized normal esophageal keratinocytes", "assay": "Organoid formation by EPC1/EPC2 esophageal 3D organoids", "format": "cell-based", "experimental": "(§1) In general, 2×10^4 cells were seeded per well to initiate PDO in 24-well plates, which were pre-warmed to 37° C. 1.4×10^5 cells were transferred into a 1.7-mL tube and centrifuged at 500×g (2,300 rpm on Eppendorf 5424R) for 3 min at room temperature to pellet cells. Cells were resuspended in 350 μL ice-cold MATRIGEL® and 50 μL of the suspension was aliquoted into each well of 24-well plate. The 24-well plate was placed in a CO2 incubator at 37° C. for 30 min to allow the MATRIGEL® to solidify.\n(§2) 500 μL of a tumor-type specific organoid medium (see Example 11) was added to each well, and the organoid media was changed every 2 to 3 days. Contamination and organoid growth was monitored under a phase-contrast microscope, and organoids were allowed to grow for 10 to 14 days and then passaged or harvested. If spherical structures were observed but grew slowly, the culturing period was extended for another 7 to 14 days.\nTo evaluate organoid growth, 3D organoid structures were monitored during culturing, and their size was documented by a conventional phase-contrast inverted microscope or high-throughput cell imaging instruments (e.g., Celigo Image Cytometer, Nexcelom Bioscience) with the capacity of automated multi-well rapid imaging and quantitative analysis of organoid size, number, and structure. Organoids were grown in 24-well or 96-well plates as described above, and phase-contrast images were manually acquired. Using ImageJ software, the diameter of at least 5 organoids per well was measured. The Celigo Image Cytometer was also used to acquire phase-contrast images and calculate mean organoid area for all organoids imaged. Growth curves were subsequently calculated by repeating measurements every other day and plotting organoid diameter or area at each time point.\nIn order to improve the success rate of creating and subculturing organoids through increasing numbers of passages, alterations to existing media were explored and compared to each other and the HC media described in Driehuis et al., Cancer Discov, 2019; 9:852-71. […]"}, "neoplastic PDOs": {"tested_on": "neoplastic PDOs", "assay": "Growth and formation of neoplastic PDOs", "format": "cell-based, human", "settings": "FIG. 2", "experimental": "as §1, §2\nTo evaluate organoid growth, 3D organoid structures were monitored during culturing, and their size was documented by a conventional phase-contrast inverted microscope or high-throughput cell imaging instruments (e.g., Celigo Image Cytometer, Nexcelom Bioscience) with the capacity of automated multi-well rapid imaging and quantitative analysis of organoid size, number, and structure. […] Using ImageJ software, the diameter of at least 5 organoids per well was measured. […]"}}, "data": [{"molecule": "Cc1cccc(-c2nn(C(=S)Nc3ccccc3)cc2-c2ccnc3ccccc23)n1", "note": "[A83-01, reference compound]", "values": [{"measurement": "EPC1/EPC2 organoid growth in HOME50 devoid of A83-01", "setting": "[1]; medium lacking A83-01 (ΔA), FIG. 5", "value": "did not grow"}]}, {"molecule": "EGF: Recombinant human epidermal growth factor (Peprotech, cat. No. AF-100-15) (NSDSECPLSHDGYCLHDGVCMYIEALDKYACNCVVGYIGERCQYRDLKWWELR; Epidermal growth factor; UniProt P01133 971-1023, looked up)", "values": [{"measurement": "growth and formation of neoplastic PDOs", "setting": "neoplastic PDOs", "value": "may stimulate growth, if not formation"}, {"measurement": "organoid formation and structure", "setting": "[1]; effect of EGF concentration, esophageal 3D organoids, FIG. 1", "value": "influences organoid formation and structure"}, {"measurement": "squamous-cell differentiation gradient", "setting": "[1]; low EGF concentration, FIG. 1", "value": "more closely recapitulates a normal squamous-cell differentiation gradient"}]}]}
